Test results: patent US20080177067A1, “Crystal forms of 9-hydroxy-risperidone (paliperidone)” (priority 2006, published 2008)

Tests used:
[1] = Water content measured by KF titration; type: physicochemical
[2] = Weight loss measured by TGA; type: physicochemical

water content, as measured by KF titration [1] | weight loss, as measured by TGA ([2]; between 25-168° C.) | weight loss, as measured by TGA ([2]; between 25-155° C.) | weight loss, as measured by TGA ([2]; between 25-145° C.) | Compound
about 0.2% | about 19.2% |  |  | Cc1nc2n(c(=O)c1CCN1CCC(c3noc4cc(F)ccc34)CC1)CCCC2O (centres unmarked) [Form III, 3-[2-[4-(6-fluorobenzo[d]isoxazol-3-yl)-1-piperidyl]ethyl]-7-hydroxy-4-methyl-1,5-diazabicyclo[4.4.0]deca-3,5-dien-2-one]
about 0.3% |  | about 0.1% |  | Cc1nc2n(c(=O)c1CCN1CCC(c3noc4cc(F)ccc34)CC1)CCCC2O (centres unmarked) [Form V, 3-[2-[4-(6-fluorobenzo[d]isoxazol-3-yl)-1-piperidyl]ethyl]-7-hydroxy-4-methyl-1,5-diazabicyclo[4.4.0]deca-3,5-dien-2-one]
about 0.5% | about 0.6% |  |  | Cc1nc2n(c(=O)c1CCN1CCC(c3noc4cc(F)ccc34)CC1)CCCC2O (centres unmarked) [Form I, 3-[2-[4-(6-fluorobenzo[d]isoxazol-3-yl)-1-piperidyl]ethyl]-7-hydroxy-4-methyl-1,5-diazabicyclo[4.4.0]deca-3,5-dien-2-one]
about 0.5% |  |  | about 0.4% | Cc1nc2n(c(=O)c1CCN1CCC(c3noc4cc(F)ccc34)CC1)CCCC2O (centres unmarked) [Form II, 3-[2-[4-(6-fluorobenzo[d]isoxazol-3-yl)-1-piperidyl]ethyl]-7-hydroxy-4-methyl-1,5-diazabicyclo[4.4.0]deca-3,5-dien-2-one]
